{"source": "patent US7884067B2", "about": "“Peptides derived from cadherin and methods of use thereof” (Mount Sinai School of Medicine of New York University, priority 2001, dated 2011)", "key": {"E-cadherin": {"system": "E-cadherin", "assay": "E-cadherin cleavage in staurosporine-treated (apoptotic) A431 cells (Western blot)", "assay_type": "cell-based, human", "description": "Cell Cultures and transfections. Cells were grown in Dulbecco's Modified Eagle Medium (DMEM) plus 10% fetal bovine serum, penicillin and streptomycin in 5% CO2 at 37° C. […] A431 cells were from American Type Culture Collection. […] A431D cells stably transfected with wild-type or GGG759-761AAA mutant E-cadherin were provided by Dr. A. B. Reynolds.\nImmunoprecipitations (IPs), immunoblotting, immunofluorescence and confocal microscopy. For WB analysis of cell extracts, cells were washed with PBS and then solubilized in RIPA buffer. For IPs cells were solubilized in Hepes buffer (25 mM Hepes [pH 7.4], 150 mM NaCl, 1× Complete protease inhibitor cocktail, Roche) containing 1% digitonin (IPs with I-R222 and PI-R222 antibodies) or 1% Triton X-100 (IPs with β-catenin and desmoglein antibodies). Following centrifugation at 17,000×g for 10 min, supernatants (1 mg protein) were pre-cleared with protein A- or protein G-agarose (Pierce) for 2 hours. Supernatants were then incubated with antibodies overnight at 4° C. and treated for 2 hours with protein A-agarose (polyclonal antibodies) or with protein G-agarose (monoclonal antibodies). IPs were washed with Hepes buffer containing either 1% digitonin or 1% Triton X-100 and analyzed by SDS-PAGE. Immunofluorescence and confocal microscopy was performed as described by Georgakopoulos et al., (1999). Briefly, cells were plated on 22×22 mm collagen-coated glass coverslips, fixed in cold methanol for 10 min at −20° C. Following washing in TBS (25 mM Tris-HCl [pH 7.4], 150 mM NaCl), cells were treated with 10% goat serum in SuperBlock (Pierce) for 1 hour, incubated overnight with primary antibody (1:100), washed in TBS and then were incubated with species specific Alexa Fluor™ secondary antibody conjugates (Molecular Probes). Cells were washed with TBS, mounted with Prolong antifade kit (Molecular Probes), and photographed on a Leica confocal laser scanning microscope.\nConditional media (20 μl) from A431 cells cultured in the absence or presence of […] and treated with SDS as above were probed on Western blots with anti-E-cadherin ectodomain antibody H108."}, "N-cadherin [1]": {"system": "N-cadherin", "assay": "N-cadherin processing in fibroblast cultures (Western blot, C32)", "assay_type": "cell-based, mouse", "details": "WT fibroblasts, L-685,458 (0.5 μM), 16 hours", "description": "Extracts from PS1+/+ or PS1−/− mouse embryos were probed on WBs with either anti-cytoplasmic N-cadherin antibody (FIG. 7A, upper panel) or anti-PS I/CTF antibody 33B10 (FIG. 7A, lower panel). Extracts from PS1+/+ or PS1−/− fibroblast cultures were incubated for 16 hours in the absence or presence of DMSO, L-685,458 (0.5 μM) and probed on WBs with either C32 or 33B10 antibodies."}, "N-cadherin [2]": {"system": "N-cadherin", "assay": "In vitro ε-cleavage assay, membranes from mouse fibroblasts or N2a cell cultures", "assay_type": "biochemical", "parameters": "dose or concentration left out as unconfirmed", "details": "cultures incubated 16 hours with L-685,458; membranes 37° C. 2 hours", "description": "In vitro γ-secretase-like ε-cleavage assay. Cells were washed in PBS, resuspended in 1 ml of 4° C. hypotonic buffer (10 mM MOPS, pH 7.0, 10 mM KCl) and homogenized on ice. A post-nuclear supernatant was prepared by centrifugation at 1000×g for 15 minutes at 4° C. Crude membranes were isolated from the post-nuclear supernatant by centrifugation at 16,000×g for 40 minutes at 4° C. The membranes were then resuspended in […] of assay buffer (150 mM sodium citrate, pH 6.4, 1× Complete protease inhibitor cocktail), and incubated at 37° C. for 2 hours. Samples were either analyzed directly by WB or separated into pellet (P100) and supernatant (S100) fractions by ultracentrifugation for 1 hour at 100,000×g at 4° C. The S100 and P100 fractions were then analyzed by WB.\nTo detect the product of the PS1-dependent cleavage of N-cadherin, an in vitro assay that uses incubation of membrane fractions to detect the ICD product of the E-cleavage of APP was used. (Gu et al. (2001) J. Biol. Chem. 276:35235-35238; McLendon et al. (2000) FASEB J. 14:2383-2386). […]"}, "[3]": {"system": "CRE-dependent transactivation", "assay": "CRE-dependent luciferase activity in HEK293 cultures stably transfected with WT-PS1", "assay_type": "cell-based, human", "details": "presence of L-685,458, FIG. 9B", "description": "Transactivation assays. CRE-dependent transactivation was measured in the absence or presence of overexpression of PKA (pFC-PKA, Stratagene) by cotransfection with CRE-luciferase reporter plasmid (pCRE-Luc, Stratagene) and pSV-β-galactosidase vector (Promega) to evaluate transfection efficiency. CHOP-mediated transactivation was measured by cotransfection with the Gal4-fusion trans-activator plasmids (pFA-CHOP and pFR-Luc, Stratagene). 30 hours after transfection, luciferase and β-galactosidase activities were determined following manufacturer's instructions using a TD-20/20 luminometer (Turner Designs) and a DU-64 spectrophotometer (Beckman). Values were normalized to β-galactosidase activity and protein concentration.\nHEK293 cultures stably transfected either with vector or WT-PS1 were co-transfected with pFC-PKA, pCRE-Luc, and pSV-β-galactosidase in the presence or absence of L-685,458 and then processed for CRE-dependent luciferase activity. Data in FIGS. 9A and B are the mean+/−s.e. of 4 experiments normalized to β-galactosidase activity and protein concentration. *, P<0.05; ***, P<0.001 (Student's t test)."}}, "data": [{"smiles": "CC(C)C[C@H](NC(=O)[C@H](Cc1ccccc1)C[C@@H](O)[C@H](Cc1ccccc1)NC(=O)OC(C)(C)C)C(=O)N[C@@H](Cc1ccccc1)C(N)=O", "note": "[L-685,458]", "values": [{"measurement": "production of the 33 kDa cadherin fragment (E-Cad/CTF2)", "setting": "E-cadherin; 30 minutes preincubation with L-685,458 (0.5 μM), then STS 6 hours", "result": "completely blocked"}, {"measurement": "E-Cad/CTF1 level on inhibition of E-Cad/CTF2", "setting": "E-cadherin; L-685,458 (0.5 μM), STS 6 hours", "result": "increase in E-Cad/CTF1"}, {"measurement": "40 kDa peptide N-Cad/CTF1", "setting": "N-cadherin [1]", "result": "accumulates"}, {"measurement": "soluble 35 kDa peptide N-Cad/CTF2", "setting": "N-cadherin [2]", "result": "completely absent"}, {"measurement": "decrease of CRE-dependent transactivation caused by PS1 overexpression", "setting": "[3]", "result": "reversed"}]}]}
